Article PMC10064330, “Reversible Dual-Covalent Molecular Locking of the 14-3-3/ERRγ Protein–Protein Interaction as a Molecular Glue Drug Discovery Approach” (Journal of the American Chemical Society, 2023)

Molecular target: T1, 14-3-3γ/ERRγ complex (Homo sapiens, UniProt P61981+P62508)
T1 construct: made in house; host or cells: E. coli NiCo21 (DE3)
Test: Fluorescence anisotropy (FA): 14-3-3γ titration to fluorescein-ERRγ phosphopeptide with 100 μM compound
Format: binding
Settings: for SF100 / stabilization (SF100) at high TCEP / stabilization of 14-3-3γ/ERRγ complex (SF100, fold): 100 μM compound; for SF100: 50 μM TCEP; for stabilization (SF100) at high TCEP: 1 mM TCEP; for stabilization of 14-3-3γ/ERRγ complex (SF100, fold): 24 h incubation; for stabilization factor SF100, Replicate 1 (Table S2) / stabilization factor SF100, Replicate 2 (Table S2) / stabilization factor SF100, Replicate 3 (Table S2) / stabilization factor SF100, Average (Table S2): KD DMSO control / apparent KD with 100 μM compound, 24 h; for stabilization factor SF100, Average (Table S2): average of three experiments
Method: The stabilization of the ERRγ/14-3-3γ complex by the molecular locks was assessed using a fluorescence anisotropy (FA) assay where 14-3-3γ was titrated into a fluorescently labeled ERRγ phosphopeptide in the absence or presence of a 100 μM molecular lock (Figure 2a,b); this compound concentration was selected based on a FA compound titration assay (Figure S1).
Experimental Section Biophysical Assays
14-3-3γ protein expression (FA, TSA, MS assays)
A pPROEX HTb expression vector encoding the human 14-3-3 protein gamma (14-3-3γ) with a N-terminal his6-tag was transformed by heat shock into NiCo21 (DE3) competent cells. Single colonies were cultured in 50 mL LB medium (100 µg/mL ampicillin). After overnight incubation at 37 °C, cultures were transferred to 2 L TB media (100 µg/mL ampicillin, 1 mM MgCl2) and incubated at 37 °C until an OD600 nm of 0.8 -1.2 was reached. Protein expression was then induced with 0.4 mM isopropyl-β-d-thiogalactoside (IPTG), and cultures were incubated overnight at 18 °C. Cells were harvested by centrifugation (8600 rpm, 20 minu tes, 4 °C) and resuspended in lysis buffer (50 mM Hepes, pH 8.0, 300 mM NaCl, 12.5 mM imidazole, 5 mM MgCl2, 2 mM βME) containing cOmplete™ EDTA-free Protease Inhibitor Cocktail tablets (1 tablet/100 ml lysate) and benzonase ( 5 µl/100 ml). After lysis using a C3 Emulsiflex-C3 homogenizer (Avestin), the cell lysate was cleared by centrifugation (20000 rpm, 30 minutes, 4 °C) and purified using Ni2+-affinity chromatography (Ni -NTA superflow cartridges, Qiagen). Typically two 5 mL columns (flow 5 mL/min) were use d for a 2 L culture in which the lysate was loaded on the column , washed with 10 CV wash buffer (50 mM Hepes, pH 8.0, 300 mM NaCl, 25 mM imidazole, 2 mM βME), and eluted in several fractions (2-4 CV) of elution buffer (50 mM Hepes, pH 8.0, 300 mM NaCl, 250 mM imidazole, 2 mM βME). Fractions containing the 14 -3-3 protein were combined and dialyzed into 25 mM HEPES pH 8.0, 100 mM NaCl, 10 mM MgCl2, 500 µM TCEP. Finally, the protein was concentrated to ∼60 mg/mL, analyzed Q-Tof LC/MS, and aliquots were flash-frozen for storage at −80 °C.
14-3-3σΔc C38N protein expression (Crystallography)
A pPROEX HTb expression vector encoding the human 14-3-3 protein sigma truncated after T231 (14-3-3σΔc), mutated C38N, and containing a N-terminal his6-tag was transformed by heat shock into NiCo21 (DE3) competent cells. Single colonies were cultured in 50 mL LB medium (100 µg/mL ampicillin). After overnight incubation at 37 °C, cultures were transferred to 2 L TB media (100 µg/mL ampicillin, 1 mM MgCl2) and incubated at 37 °C until an OD600 nm of 0.8-1.2 was reached. Protein expression was then induced with 0.4 mM isopropyl-β-d-thiogalactoside (IPTG), and cultures were incubated overnight at 18 °C. Cells were harvested by centrifugation (8600 rpm, 20 minutes, 4 °C) and resuspended in lysis buffer (50 mM Hepes, pH 8.0, 300 mM NaCl, 12.5 mM imidazole, 5 mM MgCl2, 2 mM βME) containing cOmplete™ EDTA-free Protease Inhibitor Cocktail tablets (1 tablet/ 100 ml lysate) and benzonase (5 µl/ 100 ml). After lysis using a C3 Emulsiflex-C3 homogenizer (Avestin), […]
chromatography (Ni-NTA superflow cartridges, Qiagen). Typically two 5 mL columns were used for a 2 L culture in which the lysate was loaded on the column , washed with 10 CV wash buffer (50 mM Hepes, pH 8.0, 300 mM NaCl, 25 mM imidazole, 2 mM βME), and eluted with several fractions (2 -4 CV) of elution buffer (50 mM Hepes, pH 8.0, 300 mM NaCl, 250 mM imidazole, 2 mM βME). Fractions containing the 14-3-3 protein were combined and dialyzed into 25 mM HEPES pH 8.0, 200 mM NaCl, 10 mM MgCl 2, 2 mM βME. In addition, 1 mg TEV was added for each 100 mg purified protein to remove the purification tag. The cleaved sample was then again loaded on a 10 mL Ni-NTA column to separate the cleaved product from the expression tag and residual uncleaved protein. The flowthrough was loaded on a Superdex 75 pg 16/60 size exc lusion column (GE Life Sciences) using […]

T1 sequence (P61981 whole entry, other chains not shown): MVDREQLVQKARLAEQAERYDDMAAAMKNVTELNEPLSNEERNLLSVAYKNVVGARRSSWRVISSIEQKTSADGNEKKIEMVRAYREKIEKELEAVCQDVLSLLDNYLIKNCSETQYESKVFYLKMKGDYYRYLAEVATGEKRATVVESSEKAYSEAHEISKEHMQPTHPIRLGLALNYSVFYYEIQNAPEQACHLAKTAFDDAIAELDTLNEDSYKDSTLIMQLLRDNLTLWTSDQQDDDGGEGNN

Compound	SF100	stabilization (SF100) at high TCEP	stabilization of 14-3-3γ/ERRγ complex (SF100, fold)	stabilization factor SF100, Replicate 1 (Table S2)	stabilization factor SF100, Replicate 2 (Table S2)	stabilization factor SF100, Replicate 3 (Table S2)	stabilization factor SF100, Average (Table S2)
CN(C)CCSSCCN(C)C(=O)c1cccc(F)c1 [compound 1, reference compound]	5	completely abolished	five-fold	5.3	3.7	4.6	4.6
CN(C)CCNC(=O)c1ccc(C=O)c(F)c1 [compound 3]			1	1.0	1.0	0.9	1.0
CN(C)CCSSCCN(C)C(=O)c1ccc(C=O)c(F)c1 [compound 5]		completely abolished		27.0	17.8	16.5	20.4
CN(C)CCSSCCN(C)C(=O)c1cc(Br)cc(C=O)c1 [compound 10]	37	completely abolished		37.6	34.1	38.8	36.9
